Read-outs that look alike come from different tables or passages of the source.
Assays:
dairy cattle [1] = test: Tolerability limits: intake limits of minerals for dairy cattle; format: in vivo
dairy cattle [2] = settings: cited from earlier work
dairy cattle [3] = test: Methane intensity versus normalized bromoform intake (Asparagopsis quantity calculation); format: in vivo; settings: regression constant
Protocol: In still another embodiment, a regression constant is determined. The regression constant relates the amount of bromoform required to achieve a set percentage of methane reduction per amount of neutral detergent fiber present in the animal's diet. Thus, the algorithm comprises the steps of: i) Determining the target methane reduction percentage and subsequently the target absolute reduction (g CH4/kg milk); ii) Determining cow's NDF intake, based on dry matter intake (DMI) and NDF proportion; iii) Determining the normalized bromoform concentration required (equivalent to the desired absolute reduction divided by the regression constant, where the regression constant is the Reduction in methane intensity (g CH4/kg milk) per unit normalized bromoform intake (mg/kg of NDF); iv) Multiplying by the NDF intake to determine the required bromoform concentration (mg) and v) Dividing by the bromoform concentration in that seaweed to determine amount of seaweed required.

[4] = In vivo fate of bromoform delivered from red macroalgae feed supplement; design: species or system livestock
livestock rumens = test: Rumen propionate:acetate ratio and meat trans fat in livestock fed red algae; settings: in vitro and in vivo testing
Text: It is known that bromoform is safely and usefully degraded in anaerobic environments like livestock rumens where the enzyme methyl-coenzyme M reductase is present.

[5] = dairy cattle, at the maximum allowable limit

Molecule	Intake for a Cow Consuming 20.14 kg DM/day (dairy cattle [1]; bovine, in vivo) [mg/day]	Maximum Allowable Component Intake Limit per Daily kg of DM Consumption (dairy cattle [2]; bovine, in vivo) [mg/kg DMI]	Intake for a Cow Consuming 20.14 kg DM/day (dairy cattle [1]; [5]) [mg/day]	Maximum Allowable Component Intake Limit per Daily kg of DM Consumption (dairy cattle [2]; dairy cattle) [mg/kg DMI]	further results
[Al] [Aluminum]	20140	1000	–	–	–
[Cd] [Cadmium]	–	–	201	10	–
Phosphorous	140980	7000	–	–	–
[Mo] [Molybdenum]	101	5	–	–	–
[Se] [Selenium]	–	5	101	–	–
[Ca+2] [Calcium]	–	–	302100	15000	–
Sodium	–	–	1706704	84742	–
[Pb] [Lead]	–	–	2014	100	–
[Mg+2] [Magnesium]	120840	–	–	6000	–
[K+] [Potassium]	402800	20000	–	–	–
S1SSSSSSS1 [Sulfur]	–	–	60420	3000	–
[Co] [Cobalt]	–	–	504	25	–
[B] [Boron]	3021	150	–	–	–
[Fe] [Iron]	10070	500	–	–	–
Arsenic	–	–	604	30	–
BrC(Br)Br [bromoform]	–	–	–	–	Slope-Reduction in methane intensity (g CH4/kg milk) per normalized unit bromoform intake (mg/kg of NDF) (dairy cattle [3]): −0.049 g CH4/kg milk per mg/kg of NDF; absorption of bromoform into rumen wall or other organs [4]: not absorbed into the rumen wall, or other organs; bromoform in milk, meat or manure [4]: not found; propionate:acetate ratios in livestock rumens (livestock rumens): increases the propionate:acetate ratios
[Mn+2] [Manganese]	–	–	40280	2000	–
Copper	806	40	–	–	–
[Zn] [Zinc]	–	–	10070	500	–
[Cr] [Chromium]	–	–	2014	100	–

Reference: patent US12667118B2, “Compositions comprising algae and methods of using same for increasing animal product production” (BLUE OCEAN BARNS, priority 2020, dated 2026)
